Test [1] has as its system Mupirocin-resistant MRSA (ATCC-BAA-1556). The test is described as follows: Time-kill assay at 4xMIC (FIG. 1). Type of test: cell-based, Staphylococcus aureus. The conditions noted are these: 4×MIC.
In another test the test system is S. aureus ECL 2963646. Description: microbe, parasite or virus in culture. Type of test: cell-based. How it is done:
(§1) The antibacterial potency of Compound 34 was measured using the in vitro broth microdilution assay under assay conditions described by the Clinical and Laboratory Standards Institute. […] The test substance was dissolved in 100% DMSO (unless stated below), suspended completely by sonication or vortexing, diluted by 2-fold serial titrations in the same vehicle, for a total of 11 test concentrations. A 4 μL aliquot of each dilution was added to 196 μL of broth medium seeded with the organism suspension in wells of a 96 well plate (bacterial count: 2-8×10^5 colony forming units/mL final). The final volume was 200 μL in each well and the final DMSO concentration was 2%. The incubation time is 1 day at 36° C. All strains tested underwent aerobic respiration. Following incubation, the test plates were visually examined and wells were scored for growth or complete growth inhibition to define the minimum inhibitory concentration. Each test substance was evaluated in duplicate and the results below are the duplicate test values. Vehicle-control and an active reference agent were used as blank and positive controls, respectively.

Another test deals with S. aureus NARSA VRS1. Description: microbe, parasite or virus in culture. It counts as cell-based. How it is done:
as §1

A further test concerns S. aureus NARSA VRS3a. Description: microbe, parasite or virus in culture. It counts as cell-based. The method, then:
as §1

For a further test, the system named is S. aureus NARSA VRS11b. The test is described as follows: microbe, parasite or virus in culture. Type of test: cell-based. The method, then: as §1
For a further test, the system named is S. aureus NARSA VRS2. The test is described as follows: microbe, parasite or virus in culture. Type of test: cell-based. How it is done:
as §1

The subject of test [2] is S. aureus (ATCC BAA-1556). Description: microbe, parasite or virus in culture. The method, then: S. aureus (BAA-1556) was from ATCC. Mupirocin (Cat # M2955) was purchased from TCI chemicals (India) Pvt. […] Ltd, India, Cation adjusted Mueller Hinton broth (CAMHB) and Mueller Hinton Agar (MHA) (Cat # M1657) were from HiMedia Laboratories Pvt. Ltd, India.
The MIC assay was done based on CLSI guidelines in a microtitre plate format (1, 2). Preparation and dilution of Test Item (TI) stock solutions: A 1280 μg/ml stock of Compound 34 was prepared by dissolving 1.28 mg in 1.0 ml of sterile water to obtain the Master Stock (MS) solution. The MS solution was diluted 2-fold to obtain a series of Working Stock (WS) solutions (Table 7). The final concentration of solvent in the assay was 2.5% and the assay volume was […].
Preparing the inoculum: One day before initiation of experiment, an isolated colony of S. aureus (ATCC BAA-1556) was inoculated into sterile CAMHB and incubated at 37° C. to exponential phase. After incubation, the turbidity was adjusted to that of a 0.5 McFarland Standard (approximately equivalent to 1.0×10^8 CFU/ml) and diluted to ˜1.0×10^6 CFU/ml.
MIC Assay: The MIC assay was performed in a 96 well microtitre plate in a total assay volume of 100 μl (Table 7). Each well containing different concentrations of test compound (concentration range between 0.015625 and 16.0 μg/ml) was inoculated with 50 μl of bacterial suspension (prepared from the inoculum grown overnight and adjusted approximately to 5.0×10^5 CFU/ml) along with culture control (CC, culture in broth), broth control (BC, broth only), and vehicle control (VC, 2.5% solvent in broth plus culture). The plate was incubated at 37° C. for 24 hr and turbidity was measured spectrophotometrically (Absorbance microplate reader, BioTek® India, ELx800™) at 600 nm and visually. The experiment was done in duplicates. The inoculum was also plated for enumeration of bacteria. The MIC was defined as the lowest concentration of test compound that prevented bacterial growth (lack of turbidity by OD at 600 nm and visual inspection relative to no growth control).

For test [3], the system named is Mupirocin-resistant MRSA (ATCC-BAA-1556). The test is described as follows: Bactericidal/static determination assay at 4xMIC (FIG. 2). Type of test: cell-based, Staphylococcus aureus. The conditions noted are these: 4×MIC.
In test [4] the test system is Staphylococcus epidermidis ATCC 12228. The test is described as follows: microbe, parasite or virus in culture. Type of test: cell-based. The note with it: ATCC 12228. The method, then:
(§2) The antibacterial potency of Compound 34 was measured using the in vitro broth microdilution assay under assay conditions described by the Clinical and Laboratory Standards Institute. […] The test substance was dissolved in 100% DMSO (unless stated below), suspended completely by sonication or vortexing, diluted by 2-fold serial titrations in the same vehicle, for a total of 10 test concentrations (final concentrations: 100, 50, 25, 12.5, 6.25, 3.125, 1.56, 0.78, 0.39, 0.2 μM). A 4 μL aliquot of each dilution was added to 196 μL of broth medium seeded with the organism suspension in wells of a 96 well plate (bacterial count: 2-8×10^5 colony forming units/mL final). The final volume was 200 μL in each well and the final DMSO concentration was 2 percent. The incubation time is either 1 or 2 days at 36° C. All strains tested underwent aerobic respiration, except for ATCC BAA-1805 and ATCC 29399. Following incubation, the test plates were visually examined and wells were scored for growth or complete growth inhibition to define the minimum inhibitory concentration. Each test substance was evaluated in duplicate and the results below are the duplicate test values.

The test system of test [5] is Staphylococcus aureus ATCC 19636. Description: microbe, parasite or virus in culture. Type of test: cell-based. The conditions noted are these: ATCC 19636. How it is done:
as §2

Test [6] has as its system Staphylococcus aureus ATCC BAA-1717. The test is described as follows: microbe, parasite or virus in culture. The note with it: ATCC BAA-1717. It counts as cell-based. How it is done: as §2

The record followed here is US20200157144A1, “ANTIMICROBIAL PEPTIDOMIMETICS” (priority 2017, published 2020).

Molecules are shown by their SMILES. ≈ marks a conversion by molar mass, not a printed value. Where two headings read alike, the source gives them in different places. Square brackets hold non-standard residues; d marks the D form. Peptide text beside a SMILES is read from it. dBip(4'-Cl) = N[C@H](Cc1ccc(-c2ccc(Cl)cc2)cc1)C(=O)O

Regarding `N=C(N)NCCC[C@@H](NC(=O)[C@@H](Cc1ccc(-c2ccc(Cl)cc2)cc1)NC(=O)[C@@H](CCCNC(=N)N)NC(=O)[C@H](N)Cc1ccc(-c2ccc(Cl)cc2)cc1)C(N)=O` [Compound 34] (H-[dBip(4'-Cl)][dR][dBip(4'-Cl)][dR]-NH2), the “time-kill: rate of killing compared to Linezolid, Retapamulin and Vancomycin” value in [1] was “more rapidly as compared to Linezolid, Retapamulin and Vancomycin”. Moreover, the MIC in the test with S. aureus ECL 2963646 (ECL 2963646, read-out: MIC) was found to be 2.37 µM; in the test with S. aureus ECL 2963646 (S. aureus ECL 2963646, CAMHB II) it was 2.0 µg/mL; in the test with S. aureus NARSA VRS1 (NARSA VRS1, read-out: MIC) it was 2.37 µM; in the test with S. aureus NARSA VRS1 (S. aureus NARSA VRS1, CAMHB II), 2.0 µg/mL; in the test with S. aureus NARSA VRS3a (NARSA VRS3a, read-out: MIC), 2.37 µM; in the test on S. aureus NARSA VRS3a (S. aureus NARSA VRS3a, CAMHB II), 2.0 µg/mL. The MIC is 1.18 µM in the test with S. aureus NARSA VRS11b (NARSA VRS11b, read-out: MIC); 1.0 µg/mL in the test on S. aureus NARSA VRS11b (S. aureus NARSA VRS11b, CAMHB II); 2.37 µM in the test with S. aureus NARSA VRS2 (NARSA VRS2, read-out: MIC); 2.0 µg/mL in the test with S. aureus NARSA VRS2 (S. aureus NARSA VRS2, CAMHB II); 3.13 µM (≈ 2.64 µg/mL) in [4]; 3.13 µM (≈ 2.64 µg/mL) in [5]. This compound displayed an MIC in test [6] of 3.13 µM (≈ 2.64 µg/mL). Also, the “Mean MIC” value in test [2] (ATCC BAA-1556, 24 h) was found to be 2.37 µM; in test [2] (S. aureus (ATCC BAA-1556), CAMHB, 37° C., 24 hr), 2.00 µg/mL. Further, the “bactericidal activity compared to Linezolid, Retapamulin and Vancomycin” value in [3] was “higher bactericidal activity than Linezolid, Retapamulin and Vancomycin”.
